Reference: patent publication US12391799B2, “Peptoid polymers and methods of use” (X-Therma, Inc., priority 2017, dated 2025)
Numbered stars: 1 amine (or outer) side, 2 acyl side, 3 side chain; on linkers, the order of the positions; unused ones are H or OH. Square brackets hold non-standard residues; d marks the D form. Peptide text beside a SMILES is read from it. X1 = CC(O)CN(CC(=O)[*:2])[*:1]; NPrGly = CCCNCC(=O)O; Sar = CNCC(=O)O

What was measured:
K562 cells [1] = assay: K562 viability after storage at −20° C. for 3 days (Alamar Blue); format: cell-based; conditions: 1% peptoid in XT Formula, K562 stored at −20° C. for 3 days, vs. XT Formula alone
Procedure: Several compounds were examined in XT Formula at 1% concentration (i.e., 1% peptoid polymer concentration) for their ability to increase the viability of cells subjected to super-cooled storage. XT Formula contains HTK buffer, among other components. In particular, the effects of these compounds on the viability of K562 cells stored at −20° C. for 3 days were evaluated. An Alamar Blue assay was used to assess cell viability 7 days after stored cells were thawed.

[2] = Vitrification screening assay (critical EG concentration); format: physicochemical; conditions: for Critical Ethylene Glycol Concentration: lowest EG for complete vitrification of 20 μL sample, 5 mg/mL peptoid in formulation, liquid nitrogen immersion
Procedure: As another means of increasing the throughput of library analysis, a vitrification screening assay was performed to evaluate anti-icing efficacy. For these experiments the compounds named “Compound 11,” “Compound 12,” “Compound 25,” Compound 26,” “Compound 27,” “Compound 28,” “Compound 60,” “Compound 62,” “Compound 63,” “Compound 64,” “Compound 69,” “Compound 70,” “Compound 71,” “Compound 72,” “Compound 73,” “Compound 74,” “Compound 75,” “Compound 76,” “Compound 77,” “Compound 78,” “Compound 81,” “Compound 82,” “Compound 83,” “Compound 84,” and “Compound 85” were tested.
For these experiments, 20 μL samples were flash frozen by liquid immersion in liquid nitrogen. Ethylene glycol (EG) concentrations between 5% and 25% (v/v) were used. A concentration of 5 mg/mL of peptoid polymer compounds were used in formulation. Table 12 lists the lowest concentration of EG necessary to bring about complete vitrification of a 20 μL sample with peptoid polymer in formulation, referred to as the “critical EG concentration.” A sample of formulation without the presence of a peptoid polymer was only able to bring about vitrification at 20% or more EG. Peptoid polymers of interest were able to bring about vitrification within formulas containing EG when the concentration of EG was lower than 20%.

HEK293 cells = assay: HEK293 survival after storage at −80° C. for 3 days (Alamar Blue); format: cell-based, human; conditions: 1% peptoid in XT Formula, HEK293 stored at −80° C. for 3 days, vs. XT Formula alone
Procedure: Several compounds were examined in XT Formula at 1% concentration (i.e., 1% peptoid polymer concentration) for their effects on the cryopreservation of HEK293 cells, an adherent cell line derived from human embryonic kidney cells. In particular, the effects of these compounds on the survival of HEK293 cells stored at −80° C. for 3 days were evaluated. An Alamar Blue assay was used to assess cell survival 1 day after stored cells were thawed. A 10% DMSO formula and DMEM cell media only were used as controls.

K562 cells [3] = assay: Cell toxicity assay in K562 cell culture; format: cell-based; conditions: 24 hours at 37° C. and 5% CO2
Procedure: The cytotoxicity of several compounds were evaluated using a typical cell toxicity assay in K562 cell culture. […] As a positive control, some cells were incubated without any peptoid polymer (DMEM). For a negative control, cells were incubated with DMSO (DMEM+10% DMSO).

HEK 293 cell line = assay: Cell-based cytotoxicity assay (MTT); parameters: species or system human; conditions: serial dilutions in culture media, 37° C., about 3 to 5 days
Procedure: A Tecan Genesis Robotic Workstation was used to prepare solutions in 96- and 384-well plates. Solutions contained culture media, buffers, a cryoprotectant composition (Compound 12) or DMSO. Solutions were adjusted to the desired pH. Serial dilutions were performed to obtain solutions containing various concentrations of Compound 12 and DMSO. Control experiments were performed using only culture media.
For these experiments, cells were seeded at low density (i.e., 10% confluence), exposed to solutions containing Compound 12 or DMSO, and placed in a 37° C. incubator. The cells were allowed to grow until control cells that were treated only with empty vehicle approached 70% confluence (typically about 3 to 5 days). Assessment for compound cytotoxicity was via MTT assay.

| SMILES | cell viability 7 days after thaw (K562 cells [1]) | Critical Ethylene Glycol Concentration [2] | cell survival 1 day after thaw (HEK293 cells) | further results |
| --- | --- | --- | --- | --- |
| CCC(C)NCC(=O)N(CC(=O)N(CCO)CC(=O)N(CCO)CC(=O)N(CC(=O)N(CC(=O)N(CCO)CC(=O)N(CCO)CC(=O)N(CC(=O)N(CC(N)=O)C(C)CC)C(C)CC)C(C)CC)C(C)CC)C(C)CC (stereo not drawn) [Compound 74, Nsb-Nsb-Nhe-Nhe-Nsb-Nsb-Nhe-Nhe-Nsb-Nsb] | improved cell viability compared to XT Formula alone | 15.0% (ν/ν) | – | – |
| CNCC(=O)N(C)CC(=O)N(CC(=O)N(CC(=O)N(C)CC(=O)N(C)CC(=O)N(CC(=O)N(CC(=O)N(C)CC(=O)N(C)CC(N)=O)CC(C)O)CC(C)O)CC(C)O)CC(C)O (stereo not drawn) [Compound 64, Nme-Nme-Nhp-Nhp-Nme-Nme-Nhp-Nhp-Nme-Nme] (H-[Sar][Sar][X1][X1][Sar][Sar][X1][X1][Sar][Sar]-NH2) | – | 17.5% (ν/ν) | improved cell survival compared to XT Formula alone | – |
| C[S+](C)[O-] [DMSO, dimethyl sulfoxide, reference compound] | – | – | – | cytotoxicity (cell persistence) (K562 cells [3]; DMEM+10% DMSO): suffered significant toxicity; toxicity by MTT assay (HEK 293 cell line): did not allow for warm survival for an extended period of time at any concentration above 0.5% (v/v) |
| CCCNCC(=O)N(CCC)CC(=O)N(CC(=O)N(CC(=O)N(CCC)CC(=O)N(CCC)CC(=O)N(CC(=O)N(CC(=O)N(CCC)CC(=O)N(CCC)CC(N)=O)CC(C)O)CC(C)O)CC(C)O)CC(C)O (stereo not drawn) [Compound 27, Npr-Npr-Nhp-Nhp-Npr-Npr-Nhp-Nhp-Npr-Npr] (H-[NPrGly][NPrGly][X1][X1][NPrGly][NPrGly][X1][X1][NPrGly][NPrGly]-NH2) | improved cell viability compared to XT Formula alone | 12.5% (ν/ν) | improved cell survival compared to XT Formula alone | – |
| CCC(C)NCC(=O)N(CC(=O)N(CC(=O)N(CC(=O)N(CC(=O)N(CC(=O)N(CC(=O)N(CC(=O)N(CC(=O)N(CC(N)=O)C(C)CC)C(C)CC)C(C)CO)C(C)CO)C(C)CC)C(C)CC)C(C)CO)C(C)CO)C(C)CC (stereo not drawn) [Compound 75, Nsb-Nsb-Nyp-Nyp-Nsb-Nsb-Nyp-Nyp-Nsb-Nsb] | – | 15.0% (ν/ν) | improved cell survival compared to XT Formula alone | – |
| CCC(C)N(CC(=O)N(CC(=O)N(CC(=O)N(CC(=O)N(CC(=O)N(CC(=O)N(CC(N)=O)CC(C)O)CC(C)O)C(C)CC)C(C)CC)CC(C)O)CC(C)O)C(=O)CN(C(=O)CN(CC(C)O)C(=O)CNCC(C)O)C(C)CC (stereo not shown) [Compound 11] | – | 15.0% (ν/ν) | improved cell survival compared to XT Formula alone | – |
| CCC(C)NCC(=O)N(CC(=O)N(CCOC)CC(=O)N(CCOC)CC(=O)N(CC(=O)N(CC(=O)N(CCOC)CC(=O)N(CCOC)CC(=O)N(CC(=O)N(CC(N)=O)C(C)CC)C(C)CC)C(C)CC)C(C)CC)C(C)CC (stereo not drawn) [Compound 62, Nsb-Nsb-Nmo-Nmo-Nsb-Nsb-Nmo-Nmo-Nsb-Nsb] | improved cell viability compared to XT Formula alone | 12.5% (ν/ν) | improved cell survival compared to XT Formula alone | cytotoxicity (cell persistence) (K562 cells [3]; 1% concentration): persisted about as well as cell incubated in cell culture media alone (DMEM); EG required to permit vitrification ([2]; 20 μL sample, 5 mg/mL peptoid, formulation without peptoid needs 20% or more EG): required significantly less EG in order to permit vitrification |
| CNCC(=O)N(C)CC(=O)N(C)CC(=O)N(CC(=O)N(CC(=O)N(CC(=O)N(C)CC(=O)N(C)CC(=O)N(C)CC(=O)N(CC(N)=O)CC(C)O)CC(C)O)CC(C)O)CC(C)O (stereo not shown) [Compound 15] (H-[Sar][Sar][Sar][X1][X1][X1][Sar][Sar][Sar][X1]-NH2) | – | – | – | cytotoxicity (cell persistence) (K562 cells [3]; 1% concentration): persisted about as well as cell incubated in cell culture media alone (DMEM) |
